This is an account of results in ChEMBL document CHEMBL5620367, “Discovery of new tetrahydroisoquinolines as potent and selective LSD1 inhibitors for the treatment of MLL-rearranged leukemia” (Eur J Med Chem, 2023).

For data set [1], the system named is MV4-11. Description: Induction of apoptosis in human MV4-11 cells assessed as early apoptotic cells at 100 uM incubated for 3 days by Annexin V staining based flow cytometry (reference value: […] %). The format is functional. The conditions noted are these: time 3 day.
The nature of data set [2]: Toxicity in NOD-SCID mouse xenografted with human MV4-11 cells assessed as animal survival at 50 to 78.7 mg/kg, sc measured after 33 days. The conditions noted are these: in vivo, 792 h, dose 50-78.7 mg/kg, time 33 day. The format is organism-based.
The test system of data set [3] is MV4-11. The data set can be described thus: Induction of apoptosis in human MV4-11 cells assessed as late apoptotic cells at 100 uM incubated for 3 days by Annexin V staining based flow cytometry (reference value: 7.29 %). The class given is functional. The conditions noted are these: time 3 day. A general note: In flow cytometry, cells or beads pass a laser one at a time.

A further data set relates to MOLM-13. The data set can be described thus: Induction of apoptosis in human MOLM-13 cells assessed as necrotic cells at 100 uM incubated for 3 days by Annexin V staining based flow cytometry (reference value: 1.23 %). The class given is functional. The conditions noted are these: time 3 day.
The subject of data set [4] is MV4-11. Description: Induction of apoptosis in human MV4-11 cells assessed as necrotic cells at 30 uM incubated for 3 days by Annexin V staining based flow cytometry (reference value: 2.45 %). The class given is functional. The conditions noted are these: time 3 day.
Data set [5] concerns MV4-11. Description: Induction of apoptosis in human MV4-11 cells assessed as necrotic cells at 100 uM incubated for 3 days by Annexin V staining based flow cytometry (reference value: 2.45 %). The class given is functional. The conditions noted are these: time 3 day.

`O=C(O)C(F)(F)F.O=[N+]([O-])c1ccc(C2NCCc3cc(O)c(O)cc32)cc1` (stereo unspecified): the Activity in the data set with MV4-11 [1] is listed as 9.09%; in data set [2] it was “Non-Toxic”; in the data set with MV4-11 [3] it was 32.33%; in the data set with MOLM-13, 16.41%; in the data set on MV4-11 [4], 6.36%; in the data set on MV4-11 [5], 15.9%.
